Laboratory results: US12201591B2, “Sustained release compositions of endoxifen” (Atossa Therapeutics, Inc., priority 2019, dated 2025)
“And” between values parts separate entries of the source, which are not always exact repeats. Equal entries are not always repeated. Where two headings read alike, the source gives them in different places. Values belong to the compound of their own block, whether it stands above or below them.

Experiments:
[1] = Phase I pharmacokinetic study of (Z)-endoxifen tablet and capsule, single and multiple dose; format: in vivo, human; conditions: for (E)-endoxifen levels in serum and plasma: all the times studied
Experimental: A total of 24 healthy female subjects aged ≥18 years and ≤65 years (inclusive) at the time of screening were randomly assigned and enrolled into two groups (each group n=12) in double-blinded fashion and received the study drug by once daily oral administration. […] Both groups were dosed in the SAD phase of the study. The safety and PK results from both groups were reviewed to determine if both Groups 1 and 2 were to be dosed in the MAD phase of the study, or if only Group 2 (tablets) were to be dosed in the MAD phase. […] The subjects then received 14 daily doses in the MAD. Subjects were not required to take the drugs with food.
Subjects were admitted to the clinical facility on Day 1 for up to 3 days. […] Following completion of all safety assessments and sampling for PK analyses, subjects were discharged from the clinical facility on Day 2. Days 2 to 25 were study drug free or daily dosing pause. A safety summary and up to day 6 post dose, PK data were analyzed (blindedly) and reviewed prior to initiation of the MAD regimen in one or both groups.
MAD regimen started on Day 26. Depending on the outcome of the safety and PK review, wither […] or both Groups 1 and 2 were to be dosed in the MAD part of the study starting on Day 26. […] Subjects in MAD part of the study commenced daily oral administration of the study drug for 14 consecutive days (Days 26 to 39). Subjects were supplied with study drug and instructed to self-administer each morning on empty stomach.
Day 39 was the last day of study drug administration. On Day 39, each subject returned to the clinical facility prior to dose administration and were confined to the facility until Day 40 to allow for collection of blood for PK and safety assessment. Subjects were discharged on Day 40 and returned for blood collection for PK and safety assessment on study Days 42, 44, and 46.
Safety and PK samples was collected during the daily dosing pause on Days 4, 6, 15, and 22.
MAD: Day 26 pre-dose and on Day 32 pre-dose: safety and PK samples was collected. […] Pharmacokinetic parameters determined using Phoenix WinNonlin 8.1. All times used in the calculations of PK parameters were the actual elapsed time from most recent treatment administration, with the exception of pre-dose data which was given the nominal time of 0.00 hr.

[2] = tested on: breast cancer tumor cell proliferation (Ki-67); assay: Phase 2 clinical trial of oral endoxifen: Ki-67 in breast cancer tumors; format: in vivo, human
Experimental: A phase 2 clinical trial of (Z)-endoxifen for treatment of breast cancer was performed. Subjects with invasive breast cancer were administered (Z)-endoxifen orally prior to undergoing mastectomy or lumpectomy. The effect of pre-operative oral (Z)-endoxifen treatment on clinical response measured by Ki-67 expression levels was assessed. Ki-67 expression levels were used as a measure of tumor cell proliferation in the subjects. The purpose of this study was to determine the effect of orally administered endoxifen on breast cancer tumor cell proliferation.
Subjects were selected who had received an invasive breast cancer diagnosis that required a mastectomy or lumpectomy, in which the cancer was Estrogen Receptor (ER) positive and Human Epidermal growth factor Receptor 2 (HER2) negative.
Subjects with ER positive invasive breast cancer that were scheduled for mastectomy or lumpectomy were considered for the study. Subjects consenting to the study were screened within 28 days prior to commencement of the dosing. Potential subjects were asked to consent to have tissue sections obtained from the biopsy material used for their immunopathology diagnosis. The biopsy material was used to determine baseline expression levels for Ki-67, ER, PgR and the exploratory markers.
An initial group of six subjects was selected. Subjects visited the clinical facility once within 2 days prior to commencement of treatment for study assessments. Subjects were supplied with study drug and were asked to self-administer daily. A study diary was provided to each subject for the purpose of recording study drug administration (date and time) and any adverse events. All subjects received an oral daily dose of 4 mg/day (Z)-Endoxifen until the day preceding their scheduled surgery and for a minimum of 14-days. Subjects were instructed to take each dose in the morning in a fasted state, defined as no food at least 8 hours prior to study medication through to one hour following study medication. Subjects were instructed to self-administer (Z)-Endoxifen orally with a full cup (approximately 240 mL) of noncarbonated room temperature water (additional water is permitted, if needed). There are no restrictions related to water intake. Consecutive doses were administered 24 (±2) hours apart. If a scheduled dose was missed, the dose could be taken up to 6 hours after the scheduled dose.
(§1) Each subject returned to the clinical facility for safety assessments on a day during the week preceding their scheduled surgery. The expression of Ki-67, ER, progesterone receptor (PgR), and other exploratory markers, was measured in tumor tissue obtained during the mastectomy (or lumpectomy) and compared to the expression of these markers in pre-operative baseline biopsy material obtained prior to commencement of study treatment. Pharmacodynamic exploratory markers including Proliferating cell nuclear antigen (PCNA, S phase), phosphor-histone H3 (M phase), p16 and p12 (senescence), beta-galactosidase (senescence), Terminal deoxynucleotidyl transferase dUTP nick end labeling (TUNEL, apoptosis), and RNA sequence were assessed. Ki-67, ER, PgR expression were measured using standard immunopathology techniques, and exploratory markers were measured using established laboratory assays. Endoxifen levels in blood measured in blood drawn prior to dosing on day 14 of study treatment administration. Individual and mean serum and plasma concentrations of Endoxifen were tabulated.

[3] = Safety, tolerability and pharmacokinetics of (Z)-Endoxifen in healthy female volunteers (Protocol AG-1001-AU-001); format: in vivo, human
Experimental: The safety, tolerability and pharmacokinetics of (Z)-Endoxifen was assessed in healthy female volunteers (Protocol AG-1001-AU-001). Participants were treated with oral (Z)-Endoxifen (1 mg, 2 mg and 4 mg) once daily for a total of fifteen doses (Days 1, and 8-21).
Average concentration at steady state (AUCtau/tau) were compared to published values.

[4] = Phase I study: safety and tolerability of (Z)-endoxifen tablet and capsule; format: in vivo, human
[5] = cited from earlier work
[6] = Phase 2 clinical trial of oral endoxifen: safety and tolerability; format: in vivo, human; conditions: 4 mg/day, 16-40 days
Experimental: Secondary effects of orally administered (Z)-endoxifen were also assessed, namely the effect of pre-operative (Z)-endoxifen treatment on the expression levels of estrogen receptor and progesterone receptor. […] Additional exploratory objectives including assessing the effect of pre-operative (Z)-Endoxifen treatment on PCNA (S phase), phospho-Histone H3 (M phase), p16 and p21 (senescence), Beta-Galactosidase (senescence), and TUNEL (apoptosis) markers, and identifying tumor RNA expression changes using RNA sequence.
An initial group of six subjects was selected. Subjects visited the clinical facility once within 2 days prior to commencement of treatment for study assessments. […]
as §1, with “Pharmacodynamic exploratory markers including Proliferating cell nuclear antigen (PCNA, S phase), phosphor-histone H3 (M phase), p16 and p12 (senescence), beta-galactosidase (senescence), Terminal deoxynucleotidyl transferase dUTP nick end labeling (TUNEL, apoptosis), and RNA sequence were assessed.” left out, “Individual and mean serum and plasma concentrations of Endoxifen were tabulated.” left out

[7] = Forced degradation (acid, base, heat, oxidation); format: physicochemical
[8] = multiple administration dose phase
[9] = single administration dose phase

(E)-endoxifen levels in serum and plasma [1, 8]: undetectable
(E)-endoxifen levels in serum and plasma [1, 9]: undetectable
SMILES: CCC(=C(c1ccc(O)cc1)c1ccc(OCCNC)cc1)c1ccccc1 [(E)-endoxifen]

% degradation ([7]; Acid: 0.5N HCl for 27 hrs): No degradation
% degradation ([7]; Base: 0.5N NaOH for 27 hrs): 0.12%
% degradation ([7]; Heat: 105° C. for 51 hrs): No degradation
Plasma (Z)-endoxifen level ([1]; by Day 26 (600 hours post-dose)): below the detection levels
concentration at 14 days ([1]; female, human, blood, oral, 14 once daily 4 mg doses, read-out: (Z)-endoxifen maintained in the blood): ~13 ng/mL and > 30 nM
mean serum versus time-point matched mean plasma (Z)-endoxifen concentration [1, 8]: approximately 1.2 fold
time to achieve steady state levels of plasma and serum (Z)-endoxifen ([1]; once daily 4 mg doses): approximately 14 days
mean serum versus time-point matched mean plasma (Z)-endoxifen concentration [1, 9]: approximately 1.1 fold
SMILES: CCC(=C(c1ccc(O)cc1)c1ccc(OCCNC)cc1)c1ccccc1 [(Z)-endoxifen, 4-hydroxy-N-desmethyl-tamoxifen]
Ki-67% reduction, AVERAGE ([2]; initial results, six subjects, 4 mg/day, average 22 days): 69%
Ki-67 reduction in every patient ([2]; six subjects, 4 mg/day): more than 50%
Ki-67 level after Endoxifen treatment (all patients) ([2]; six subjects, 4 mg/day, 16-40 days): low (low (defined as less than ˜14%))
Ki-67% reduction ([2]; subject R1001): 60%
Post Endoxifen Ki-67% ([2]; subject R1001, 21 days on Endoxifen 4 mg, pre 5%): 2%
Ki-67% reduction ([2]; subject R1002): 60%
Post Endoxifen Ki-67% ([2]; subject R1002, 23 days on Endoxifen 4 mg, pre 20%): 8%
Ki-67% reduction ([2]; subject R1003): 87%
Post Endoxifen Ki-67% ([2]; subject R1003, 17 days on Endoxifen 4 mg, pre 90%): 12%
Ki-67% reduction ([2]; subject R1004): 91%
Post Endoxifen Ki-67% ([2]; subject R1004, 17 days on Endoxifen 4 mg, pre 22%): 2%
Ki-67% reduction ([2]; subject R1005): 60%
Post Endoxifen Ki-67% ([2]; subject R1005, 40 days on Endoxifen 4 mg, pre 25%): 10%
Ki-67% reduction ([2]; subject R1006): 58%
Post Endoxifen Ki-67% ([2]; subject R1006, 16 days on Endoxifen 4 mg, pre 12%): 5%
Ki-67 levels following treatment, all six patients ([2]; subsequent results): below 25%
average reduction in tumor cell proliferation, as measured by Ki-67 ([2]; subsequent results, 22 days of dosing, six subjects, p=0.031): about 74%
% Ratio of Css Study (serum)/Literature (plasma) ([3]; 1 mg dose): 154%
Study Result of Average Serum (Z)-Endoxifen Css ([3]; 1 mg dose): 19.1 ng/mL and 51.1 nM
Cmax and AUC24 hr across the three dose levels ([3]; 1 mg, 2 mg and 4 mg): dose-proportionality
safety signals ([3]; 1 mg, 2 mg and 4 mg once daily, fifteen doses): no clinically significant safety signals
% Ratio of Css Study (serum)/Literature (plasma) ([3]; 2 mg dose): 204%
Study Result of Average Serum (Z)-Endoxifen Css ([3]; 2 mg dose): 38 ng/mL and 101.7 nM
% Ratio of Css Study (serum)/Literature (plasma) ([3]; 4 mg dose): 150%
Study Result of Average Serum (Z)-Endoxifen Css ([3]; 4 mg dose): 85.1 ng/mL and 227.9 nM
half-life ([3]; female, human, serum, oral, 1 mg, 2 mg and 4 mg, read-out: mean half-life (t1/2) by dose level): 2520 to 3180 min
time to steady state ([3]; once daily dosing): approximately 7 days
commonly occurring adverse events with a relationship of possible or probable ([3]; only reported in participants who received (Z)-Endoxifen): upper respiratory infection, hot flush, abdominal distension, dry mouth and menstruation delayed
tolerability ([3]; single dose and then daily for 14 days, 1 mg, 2 mg and 4 mg): well tolerated
night sweats reported, percent of subjects ([4]; multiple dose administration phase, 2 of 19 subjects): 11%
hot flash reported, percent of subjects ([4]; multiple dose administration phase, 4 of the 18 subjects): 22%
hot flash reported, percent of subjects ([4]; single dose administration phase, 2 of 18 subjects): 11%
Published Literature Result of Average Plasma (Z)-Endoxifen Css ([5]; 1 mg dose): 12.4 ng/mL and 33.1 nM
Published Literature Result of Average Plasma (Z)-Endoxifen Css ([5]; 2 mg dose): 18.6 ng/mL and 49.8 nM
Published Literature Result of Average Plasma (Z)-Endoxifen Css ([5]; 4 mg dose): 56.8 ng/mL and 152.1 nM
Published Literature Result of Average Plasma (Z)-Endoxifen Css ([5]; 8 mg dose): 96.8 ng/mL and 259.2 nM
safety or tolerability issues, including vasomotor symptoms [6]: no safety or tolerability issues

SMILES: CC/C(=C(\c1ccc(O)cc1)c1ccc(OCCNC)cc1)c1ccccc1.Cl [Endoxifen Chloride]
(Z)-Endoxifen Plasma ([5]; 20 mg/day, Aromatase Inhibitor Refractory Metastatic Breast Cancer, Goetz et al. 2013): 390 nM
Outcomes ([5]; 20 mg/day, Goetz et al. 2013): Gr 2 hot flash (1
(Z)-Endoxifen Plasma ([5]; 40 mg/day, Aromatase Inhibitor Refractory Metastatic Breast Cancer, Goetz et al. 2013): 660 nM
Outcomes ([5]; 40 mg/day, Goetz et al. 2013): None; Stable disease
(Z)-Endoxifen Plasma ([5]; 60 mg/day, Aromatase Inhibitor Refractory Metastatic Breast Cancer, Goetz et al. 2013): 1,010 nM
Outcomes ([5]; 60 mg/day, Goetz et al. 2013): Gr 4 Triglycerides
(Z)-Endoxifen Plasma ([5]; 80 mg/day, Aromatase Inhibitor Refractory Metastatic Breast Cancer, Goetz et al. 2013): 1,610 nM
Outcomes ([5]; 80 mg/day, Goetz et al. 2013): Gr 2 Hot flashes
(Z)-Endoxifen Plasma ([5]; 100 mg/day, Aromatase Inhibitor Refractory Metastatic Breast Cancer, Goetz et al. 2013): 2,480 nM
Outcomes ([5]; 100 mg/day, Goetz et al. 2013): Gr 2 nausea (1 pt); Gr
(Z)-Endoxifen Plasma ([5]; 120 mg/day, Aromatase Inhibitor Refractory Metastatic Breast Cancer, Goetz et al. 2013): 2,180 nM
Outcomes ([5]; 120 mg/day, Goetz et al. 2013): Gr 2 hypersomnia,
Outcomes: maximum tolerated dose ([5]; 20->160 mg/day, Goetz et al. 2015): not observed. 1 DLT,
(Z)-Endoxifen Plasma ([5]; 160 dose (20->160 mg/day), Goetz et al. 2015): 3,600 nM
